Laboratory results reported in patent US20030186947A1, “Compounds having activity as inhibitors of cytochrome P450RAI” (priority 2000, published 2003).
Like-named read-outs stand apart in the source and are kept apart here.

Test system: skin of hairless mice
Conditions: topical in acetone, once daily days 1 through 5, mean ±SD, range 0-21
Excerpt: This irritation is a direct result of activation of the RAR nuclear receptors. Analysis of retinoid topical irritation is also a highly reproducible method of determining in vivo retinoid potency. The SKH1-hrBR or hairless mouse provides a convenient animal model of topical irritation, since retinoid-induced skin flaking and abrasion can be readily scored by eye (Standeven et al., “Specific antagonist of retinoid toxicity in mice.” Toxicol. Appl. Pharmacol. 138:169-175, (1996); Thacher, et al., “Receptor specificity of retinoid-induced hyperplasia. Effect of RXR-selective agonists and correlation with topical irritation”. J. Pharm. Exp. Ther., 282:528-534, (1997)).
Female hairless mice (Crl:SKH1-hrBR), 5-7 weeks old, were obtained from Charles River Breeding Labs (Wilmington, Mass.). Animals were about 6 weeks old at the start of the experiments. Food (Purina Rodent Chow 5001) and reverse osmosis water were provided ad libitum. Mice were housed individually throughout the dosing period. In some experiments, mice that fit within a defined weight range, e.g., 21-25 g, were selected from the available stock and then randomly assigned to the various treatment groups, using body weight as the randomization variable.
The compounds to be tested were dissolved in acetone for application to the backs of the mice.
Mice were treated topically on the back in a volume of 4.0 ml/kg (0.07-0.12 ml) adjusted daily so as to deliver a fixed dose of test compound per g body weight. Doses are disclosed as nmol/25 g.
The mice were weighed daily and the dorsal skin was graded daily using separate semi-quantitative scales to determine flaking and abrasion. These flaking and abrasion scores were combined with weight change (if any) to create a cutaneous toxicity score (Blackjack score).
A visual grading scale was used for characterizing topical irritation on a daily basis. The grading scale used is as follows:
The flaking and abrasion observations were combined with body weight observations to calculate a single, semiquantitative topical or cutaneous “toxicity score” as detailed below. The toxicity score (also known as “blackjack score” since the theoretical maximum is 21) takes into account the maximal severity, and the time of onset of skin flaking and abrasions and the extent of weight between the first and last days of the experiment. Below are listed the seven numerical components of the toxicity score and an explanation of how those values are combined to calculate the toxicity score.
Flaking onset score (2) and average severity score (3) are summed and divided by two. The quotient is added to the maximal severity score (1). Composite flaking scores are calculated for each individual animal in a group, averaged, and rounded to the nearest integer. Values can range from 0-9.
Abrasion onset score (5) and average severity score (6) are summed and divided by two. The quotient is added to the maximal severity score (4). Composite abrasion scores are calculated for each individual animal in a group, averaged and rounded to the nearest integer. Values can range from 0-8.
Composite flaking score, composite abrasion score, and systemic toxicity score are summed to give the “toxicity score.” Toxicity scores are calculated for each individual animal in a group, averaged, and rounded to the nearest integer. Values can range from 0-21 and are expressed in Table 1A below as the mean ±SD of the values for a group.

Row | Structure (SMILES) | Cutaneous Toxicity Score (Blackjack Score) (100 nmole (nmol/25 g)) | Cutaneous Toxicity Score (Blackjack Score) (1000 nmole (nmol/25 g)) | Cutaneous Toxicity Score (Blackjack Score) (300 nmole (nmol/25 g))
1 | CC1(C)CCC(=O)c2ccc(C#Cc3ccc(CC(=O)O)c(F)c3)cc21 [Compound 15, [2-Fluoro-4-(8.8-dimethyl-5-oxo-5,6,7,8-tetrahydro-naphthalene-2-yl-ethynyl)phenyl]-acetic acid] | 1 ± 1 | 5 ± 2 | 
2 | CCN(Cc1ccc(C#Cc2ccc(CC(=O)O)cc2)cc1C)C1CC1 [Compound 131] | 1 ± 1 | 1 ± 1 | 0 ± 1
